B1: VB6-845: cytotoxin: Fab version of an anti-Ep-CAM scFv antibody linked to Bou156 at the C-terminus of the CH domain via a furin linker (protein)
chain 1: EVQLVQSGPGLVQPGGSVRISCAASGYTFTNYGMNWVKQAPGKGLEWMGWINTYTGESTYADSFKGRFTFSLDTSASAAYLQINSLRAEDTAVYYCARFAIKGDYWGQGTLLTVSSASTKGPSVFPLAPSSKSTSGGTAALGCLVKDYFPEPVTVSWNSGALTSGVHTFPAVLQSSGLYSLSSVVTVPSSSLGTQTYICNVNHKPSNTKVDKKVEPKSCTRHRQPRGWEQLYNTVSFNLGEAYEYPTFIQDLRNELAKGTPVCQLPVTLQTIADDKRFVLVDITTTSKKTVKVAIDVTDVYVVGYQDKWDGKDRAVFLDKVPTVATSKLFPGVTNRVTLTFDGSYQKLVNAAKADRKALELGVNKLEFSIEAIHGKTINGQEAAKFFLIVIQMVSEAARFKYIETEVVDRGLYGSFKPNFKVLNLENNWGDISDAIHKSSPQCTTINPALQLISPSNDPWVVNKVSQISPDMGILKFKSSK
chain 2: HHHHHHDIQMTQSPSSLSASVGDRVTITCRSTKSLLHSNGITYLYWYQQKPGKAPKLLIYQMSNLASGVPSRFSSSGSGTDFTLTISSLQPEDFATYYCAQNLEIPRTFGQGTKVELKRTVAAPSVFIFPPSDEQLKSGTASVVCLLNNFYPREAKVQWKVDNALQSGNSQESVTEQDSKDSTYSLSSTLTLSKADYEKHKVYACEVTHQGLSSPVTKSFNRGEC

Tests used:
[1] = tested on: HMEC; assay: MTS cytotoxicity assay; format: cell-based, human; settings: Ep-CAM-negative HMEC, 5 days
Procedure: The tumour cell lines used in this study were purchase from ATCC and were propagated following ATCC's recommendations except for the cell lines C-41, TOV-112D which were grown in RPMI 1640 or DMEM supplemented with 10% FCS, respectively. Tumor cells were harvested at 60-70% confluence with viability over 90%. The human normal mammary epithelial cells (HMEC) were purchased from CAMBREX and maintained in specified media according to the procedure provided by CAMBREX. The cells were harvested at 70% confluence with viability over 90%.
(§1) The MTS assay was preformed using standard techniques known in the art. More particularly, 50 microlitres of cells (2×10^4 cells/ml) were seeded per well and plates were incubated at 37° C. under 5% CO2 for 2 hr. Then 50 microlitres of spiked drug (i.e. construct to be tested or control) was added to the culture medium at increasing concentrations. Culture medium, with or without cells, was used as positive and negative controls, respectively. The plates were left at 37° C. under 5% CO2 for 5 days. At day 5, the inhibition of cell proliferation was evaluated by adding 20 microlitres of MTS reagent (Promega, Cat# G5430). The plates were further incubated at 37° C. under 5% CO2 for 2 hr and ODs were read at 490 nm using the plate reader spetrophotometer. Background values were subtracted from the sample values obtained for each concentration and the results were expressed as a percent of viable cells. The IC50 values for each drug were calculated for each cell line.

[2] = tested on: NIH:OVCAR-3; assay: MTS cytotoxicity assay; format: cell-based; settings: Ep-CAM-positive NIH:OVCAR-3, MTS, 5 days
Procedure: The MTS assay used to measure potency was conducted using standard technique known in the art, and as more fully described below in Example 8. […] In the case of VB6-845-CL-de-bouganin, the potency was measured at 1 to 2 nM for CAL 27 and 0.6 to 0.7 nM versus NIH:OVCAR-3.
as §1

[3] = tested on: DAUDI; assay: MTS cytotoxicity assay; format: cell-based; settings: Ep-CAM-negative DAUDI, 5 days
Procedure: as §1

[4] = tested on: A-375; assay: MTS cytotoxicity assay; format: cell-based; settings: Ep-CAM-negative A-375, MTS, 5 days
Procedure: as §1

[5] = tested on: PBMCs (peripheral blood mononuclear cells) from naive donors; assay: Naive human T-cell proliferation assay (3H-thymidine incorporation, stimulation index); format: cell-based; settings: for T cell proliferation (in words): compared with peptide 44; for presence of T cell epitope: compilation of 20 donors, 1 μM and 5 μM; for responsive donors: of 20 donor PBMC samples
Procedure: Accordingly, in the present studies, 89 synthetic 15-mer peptides (as listed in Table 1) were used in T-cell proliferation assays with PBMCs (peripheral blood mononuclear cells) from naive donors (i.e. no known sensitization to bouganin). 20 donor PBMC samples were selected to achieve an optimal coverage of MHC class II allotypes. PBMCs were stimulated with individual peptides in triplicate cultures for 7 days before proliferation was assessed by ^3H-thymidine incorporation. All peptides were diluted at two different concentrations: 1 μM and 5 μM. The stimulation indices (SI) were calculated as the amount of ^3H incorporated into the cells, divided by the amount of ^3H incorporated in mock-stimulated controls.
The peptides were used in T-cell proliferation assays with PBMCs (peripheral blood mononuclear cells) from naive donors (i.e. no known sensitization to bouganin). 20 donor PBMC were selected to get an optimal coverage of MHC class II allotypes. The allotypic coverage is in excess of 85%.
PBMCs were stimulated with individual peptides in triplicate cultures for 7 days before proliferation was assessed by ^3H-thymidine (^3H-Thy) incorporation. All peptides were tested at two different concentrations (1 μM and 5 μM). Stimulation indices (S.I.) were calculated as the amount of ^3H incorporated, divided by the amount of ^3H incorporated in mock-stimulated control cells.
Buffy coats from human blood stored for less than 12 hours were obtained from the National Blood Service (Addenbrooks Hospital, Cambridge, UK). Ficoll-paque was obtained from Amersham Pharmacia Biotech (Amersham, UK). Serum free AIM V media for the culture of primary human lymphocytes and containing L-glutamine, 50 μg/ml streptomycin, 10 μg/ml gentomycin and 0.1% human serum albumin was from Gibco-BRL (Paisley, UK). Synthetic peptides were obtained from Eurosequence (Groningen, The Netherlands) and Babraham Technix (Cambridge, UK).
Erythrocytes and leukocytes were separated from plasma and platelets by gentle centrifugation of buffy coats. The top phase (containing plasma and platelets) was removed and discarded. Erythrocytes and leukocytes were diluted 1:1 in phosphate buffered saline (PBS) before layering onto 15 ml ficoll-paque (Amersham Pharmacia, Amersham UK). Centrifugation was done according to the manufacturers recommended conditions and PBMCs were harvested from the serum+PBS/ficoll paque interface. PBMCs were mixed with PBS (1:1) and collected by centrifugation. The supernatant was removed and discarded and the PBMC pellet resuspended in 50ml PBS. Cells were again pelleted by centrifugation and the PBS supernatant discarded. Cells were resuspended using 50 ml AIM V media and at this point counted and viability assessed using trypan blue dye exclusion. Cells were again collected by centrifugation and the supernatant discarded. Cells were resuspended for cryogenic storage at a density of 3×10^7 per ml. The storage medium was 90% (v/v) heat inactivated AB human serum (Sigma, Poole, UK) and 10% (v/v) DMSO (Sigma, Poole, UK). Cells were transferred to a regulated freezing container (Sigma) and placed at −70° C. overnight. When required for use, cells were thawed rapidly in a water bath at 37° C. before transferring to 10ml pre-warmed AIM V medium.
PBMC were stimulated with protein and peptide antigens in a 96 well flat bottom plate at a density of 2×10^5 PBMC per well. PBMC were incubated for 7 days at 37° C. before pulsing with ^3H-Thy (Amersham-Pharmacia, Amersham, UK). […] C-32=sequence […] from Flu haemagglutinin residues 307-319 (SEQ ID NO:127). C-49=sequence […] from Chlamydia HSP 60 (SEQ ID NO:128).
Peptides were dissolved in DMSO to a final concentration of 10 mM, these stock solutions were then diluted 1/500 in AIM V media (final concentration 20 μM). Peptides were added to a flat bottom 96 well plate to give a final concentration of 1 and 5 μM in 100 μl. […]

| Molecule | IC50 ([1]; Homo sapiens, 120 h) [nM] | IC50 ([2]; Homo sapiens, 120 h) [nM] | IC50 ([3]; Homo sapiens, 120 h) [nM] | IC50 ([4]; Homo sapiens, 120 h) [nM] | IC50 [1] [nM] | IC50 [3] [nM] | IC50 [4] [nM] | also measured |
| --- | --- | --- | --- | --- | --- | --- | --- | --- |
| COc1cc([C@@H]2c3cc4c(cc3[C@@H](O[C@@H]3O[C@@H]5CO[C@@H](C)O[C@H]5[C@H](O)[C@H]3O)[C@H]3COC(=O)[C@H]23)OCO4)cc(OC)c1O [Etoposide] | 600 | 210 | 1.7 | 280 | – | – | – | – |
| CO[C@@]12[C@H](COC(N)=O)C3=C(C(=O)C(C)=C(N)C3=O)N1C[C@@H]1N[C@@H]12 [Mitomycin C] | – | – | – | – | 50 | 2.8 | 14 | IC50 [2]: 28 nM |
| Bleomycin Sulfate | – | – | – | – | 600 | 22 | 170 | IC50 [2]: 30 nM |
| EIAKFFLIVIQMVSE [peptide 51, bouganin 15-mer peptide, first amino acid 151] | – | – | – | – | – | – | – | S.I. (stimulation index) ([5]; donor 14): > 1.9 |
| O=C(O)CCCc1ccc(N(CCCl)CCCl)cc1 [Chlorambucil] | > 1000 | > 1000 | > 1000 | > 1000 | – | – | – | – |
| Cc1c(N)nc([C@H](CC(N)=O)NC[C@H](N)C(N)=O)nc1C(=O)N[C@H](C(=O)N[C@H](C)[C@@H](O)[C@H](C)C(=O)N[C@H](C(=O)NCCc1nc(-c2nc(C(=O)NCCCNCCCCN)cs2)cs1)[C@@H](C)O)[C@@H](O[C@@H]1O[C@@H](CO)[C@@H](O)[C@H](O)[C@@H]1O[C@@H]1O[C@H](CO)[C@@H](O)[C@H](OC(N)=O)[C@@H]1O)c1cnc[nH]1 [Bleomycin A5] | – | – | – | – | 1000 | 130 | 290 | IC50 [2]: 150 nM |
| CC[C@@]1(O)C(=O)OCc2c1cc1n(c2=O)Cc2cc3c(CN(C)C)c(O)ccc3nc2-1 [Topotecan] | 4.1 | 0.071 | 0.009 | 1.5 | – | – | – | – |
| O=P1(N(CCCl)CCCl)NCCCO1 (centres unmarked) [Cyclophosphamide] | > 1000 | > 1000 | > 1000 | > 1000 | – | – | – | – |
| N.N.O=C([O-])C1(C(=O)[O-])CCC1.[Pt+2] [Carboplatin] | – | – | – | – | > 1000 | > 1000 | > 1000 | IC50 [2]: > 1000 nM |
| YKLEFSIEAIHGKTI [compound 45, bouganin 15-mer peptide, first amino acid 133] | – | – | – | – | – | – | – | T cell proliferation (in words) [5]: lower level T cell proliferation |
| N.N.[Cl][Pt][Cl] [Cisplatin] | – | – | – | – | > 1000 | > 1000 | > 1000 | IC50 [2]: > 1000 nM |
| COc1cccc2c1C(=O)c1c(O)c3c(c(O)c1C2=O)C[C@@](O)(C(=O)CO)C[C@@H]3O[C@H]1C[C@H](N)[C@H](O)[C@H](C)O1 [Doxorubicin] | 16 | 3 | – | 2.8 | – | – | – | – |
| CN(Cc1cnc2nc(N)nc(N)c2n1)c1ccc(C(=O)N[C@@H](CCC(=O)O)C(=O)O)cc1 [Methotrexate] | 41 | > 1000 | 3.6 | 6 | – | – | – | – |
| NGQEIAKFFLIVIQM [peptide 50, bouganin 15-mer peptide, first amino acid 148] | – | – | – | – | – | – | – | presence of T cell epitope [5]: T cell epitopes; S.I. (stimulation index) ([5]; donor 4): 2.9; S.I. (stimulation index) ([5]; donor 14): 2.0; responsive donors [5]: 2 |
| DLELGVYKLEFSIEA [compound 43, bouganin 15-mer peptide, first amino acid 127] | – | – | – | – | – | – | – | T cell proliferation (in words) [5]: lower level T cell proliferation |
| CCc1c2c(nc3ccc(OC(=O)N4CCC(N5CCCCC5)CC4)cc13)-c1cc3c(c(=O)n1C2)COC(=O)[C@]3(O)CC [Irinotecan] | 1000 | 180 | 190 | 900 | – | – | – | – |
| O=c1[nH]cc(F)c(=O)[nH]1 [Fluorouracil] | > 1000 | > 1000 | > 1000 | > 1000 | – | – | – | – |
| LGVYKLEFSIEAIHG [peptide 44, bouganin 15-mer peptide, first amino acid 130] | – | – | – | – | – | – | – | presence of T cell epitope [5]: T cell epitopes; S.I. (stimulation index) ([5]; donor 4): 3.5; S.I. (stimulation index) ([5]; donor 11): 2.3; responsive donors [5]: two |
| B1 | – | – | – | – | 220 | > 1000 | > 1000 | – |

From US20050238642A1, “Modified bouganin proteins, cytotoxins and methods and uses thereof” (priority 2004, published 2005)
